Test system: X-MuLV
Experiment: X-MuLV inactivation by detergent in neutralized mAb protein A eluate, remaining infectivity by TCID50 assay on PG-4 cells
Format: cell-based, Xenotropic Murine Leukemia Virus
Settings: 16° C.
Experimental: The pH of various protein A eluates was adjusted to 7.0 with 1M Tris buffer. The pH adjusted eluate was then filtered through a 0.22 um filter. Various volumes of 5% stock solution of Mega-10, Tween 20, or Tween 80 were added to the filtered neutralized protein A eluates. This was done to prepare protein A eluates containing various concentrations of each detergent. X-MuLV was then spiked at a 1:20 ratio to the neutralized protein A eluate containing various concentrations of each detergent that had been pre-incubated at a 16° C. water bath prior to the virus spiking. After a thorough mixing, an aliquot of a sample was removed immediately and quenched with a diluent (McCoy's medium containing 3 μg/mL of polybrene) at 1:12 for Mega-10 or at 1:100 for Tween 20 and Tween 80 to stop the inactivation, and the sample was designated as a time-zero sample. The remaining spiked eluate was returned to the water bath and the samples were collected at the indicated time to evaluate the viral inactivation kinetics.
The remaining X-MuLV infectivity in the samples post-inactivation treatment was determined by a TCID50 assay that is an endpoint dilution assay to quantify the amount of virus required to produce a cytopathic effect in 50% of inoculated tissue culture cells. Virus titers were estimated using the Spearman-Karber method and reported as TCID50/mL with a calculated 95% confidence interval (CI). Briefly, a sufficient number of 96-well plates with PG-4 (feline S^+L^−, ATCC#CRL-2032) cells were prepared the day before starting the viral inactivation experiments and incubated overnight in a 37° C. humidified CO2 incubator. A set of ten 3.2 fold dilution of the diluted positive control (1:100) and viral inactivated samples were prepared in a dilution block. Each set of the 11 serial dilutions of the samples were inoculated correspondingly onto wells (100 μL per well) of the first 11 columns in a 96-well plate that had been pre-seeded with PG-4 cells. The 12th column in the same plate was inoculated with the corresponding diluent to serve as non-virus negative control. The positive control was prepared by spiking the filtered neutralized protein A eluate with X-MuLV at a 1:20 ratio. The inoculated plates were then incubated in a 37° C. humidified CO2 incubator for approximate 2 hours. A volume of 100 uL of 2× assay medium (92% McCoy's 5A medium, 4% FBS, 2% Penicillin/Streptomycin, 2% L-Glutamine) was added to each well of the plates at the end of incubation. The plates were then returned to the same incubator, and continued incubation for 6 days. Each well of the plates were scored under a microscope for the presence of cytopathic effect (CPE) and the results were recorded in a scoring sheet. Virus titers were then estimated using the Spearman-Karber method and reported as TCID50/mL with a calculated 95% confidence interval (CI).
To evaluate robustness of X-MuLV inactivation by Mega-10 in Protein A eluates of mAb1, X-MuLV was spiked at a 1:20 ratio into the neutralized mAb1 protein A eluate contain 0.1%, 0.2% and 0.3% of Mega-10. After a thorough mixing, an aliquot of sample was removed at 0, 2.5, 5, 10, and 30 minutes after incubation at 16° C. The remaining virus titer in the collected samples was determined by the TCID50 assay.

[1] = 0.1% Mega-10, neutralized mAb1 protein A eluate pH 7.01, incubation 0 minutes
[2] = 0.1% Mega-10, neutralized mAb1 protein A eluate pH 7.01, incubation 2.5 minutes
[3] = 0.1% Mega-10, neutralized mAb1 protein A eluate pH 7.01, incubation 5.0 minutes
[4] = 0.1% Mega-10, neutralized mAb1 protein A eluate pH 7.01, incubation 10 minutes
[5] = 0.1% Mega-10, neutralized mAb1 protein A eluate pH 7.01, incubation 30 minutes
[6] = 0.1% Mega-10, neutralized mAb2 protein A eluate pH 7.01, incubation 0 minutes
[7] = 0.1% Mega-10, neutralized mAb2 protein A eluate pH 7.01, incubation 2.5 minutes
[8] = 0.1% Mega-10, neutralized mAb2 protein A eluate pH 7.01, incubation 5.0 minutes
[9] = 0.1% Mega-10, neutralized mAb2 protein A eluate pH 7.01, incubation 10 minutes
[10] = 0.1% Mega-10, neutralized mAb2 protein A eluate pH 7.01, incubation 30 minutes
[11] = 0.2% Mega-10, neutralized mAb1 protein A eluate pH 7.01, incubation 0 minutes
[12] = 0.2% Mega-10, neutralized mAb1 protein A eluate pH 7.01, incubation 5.0 minutes
[13] = 0.2% Mega-10, neutralized mAb1 protein A eluate pH 7.01, incubation 10 minutes
[14] = 0.2% Mega-10, neutralized mAb1 protein A eluate pH 7.01, incubation 30 minutes
[15] = 0.2% Mega-10, neutralized mAb2 protein A eluate pH 7.01, incubation 0 minutes
[16] = 0.2% Mega-10, neutralized mAb2 protein A eluate pH 7.01, incubation 2.5 minutes
[17] = 0.2% Mega-10, neutralized mAb2 protein A eluate pH 7.01, incubation 5.0 minutes
[18] = 0.2% Mega-10, neutralized mAb2 protein A eluate pH 7.01, incubation 10 minutes
[19] = 0.3% Mega-10, neutralized mAb1 protein A eluate pH 7.01, incubation 0 minutes
[20] = 0.3% Mega-10, neutralized mAb1 protein A eluate pH 7.01, incubation 5.0 minutes
[21] = 0.3% Mega-10, neutralized mAb1 protein A eluate pH 7.01, incubation 10 minutes
[22] = 0.3% Mega-10, neutralized mAb1 protein A eluate pH 7.01, incubation 30 minutes
[23] = 0.3% Mega-10, neutralized mAb2 protein A eluate pH 7.01, incubation 0 minutes
[24] = 0.3% Mega-10, neutralized mAb2 protein A eluate pH 7.01, incubation 5.0 minutes
[25] = 0.3% Mega-10, neutralized mAb2 protein A eluate pH 7.01, incubation 10 minutes
[26] = 0.3% Mega-10, neutralized mAb2 protein A eluate pH 7.01, incubation 30 minutes

## CCCCCCCCCC(=O)N(C)C[C@H](O)[C@@H](O)[C@H](O)[C@H](O)CO [Mega-10, N-Methylglucamide]
0.10% Mega 10 alone, neutralized mAb1 protein A eluate, 0 minutes (Table 2)
  LRF ± 95% CL: 0.33 ± 0.35
0.10% Mega 10 alone, neutralized mAb1 protein A eluate, 2.5 minutes (Table 2)
  LRF ± 95% CL: 0.33±0.29
0.10% Mega 10 alone, neutralized mAb1 protein A eluate, 2.5 minutes (Table 2), listed as Mega 10
  LRF ± 95% CL: 0.33 ± 0.29
0.10% Mega 10 alone, neutralized mAb1 protein A eluate, 5 minutes (Table 2)
  LRF ± 95% CL: 0.33 ± 0.32
0.10% Mega 10 alone, neutralized mAb1 protein A eluate, 10 minutes (Table 2)
  LRF ± 95% CL: 0.39 ± 0.36
0.10% Mega 10 alone, neutralized mAb1 protein A eluate, 30 minutes (Table 2)
  LRF ± 95% CL: 0.64 ± 0.33
[1]
  LRF ± 95% CL: 0.26 ± 0.28
  Log10 TCID50/mL: 6.53 ± 0.20 Log10 TCID50/mL
[2]
  LRF ± 95% CL: 0.38 ± 0.32
  Log10 TCID50/mL: 6.41 ± 0.26 Log10 TCID50/mL
[3]
  LRF ± 95% CL: 0.38 ± 0.28
  Log10 TCID50/mL: 6.41 ± 0.21 Log10 TCID50/mL
[4]
  LRF ± 95% CL: 0.38 ± 0.28
  Log10 TCID50/mL: 6.41 ± 0.20 Log10 TCID50/mL
[5]
  LRF ± 95% CL: 0.38 ± 0.23
  Log10 TCID50/mL: 6.41 ± 0.12 Log10 TCID50/mL
[6]
  LRF ± 95% CL: 0.36 ± 0.28
  Log10 TCID50/mL: 6.56 ± 0.22 Log10 TCID50/mL
[7]
  LRF ± 95% CL: 0.36 ± 0.28
  Log10 TCID50/mL: 6.56 ± 0.22 Log10 TCID50/mL
[8]
  LRF ± 95% CL: 0.36 ± 0.25
  Log10 TCID50/mL: 6.56 ± 0.18 Log10 TCID50/mL
[9]
  LRF ± 95% CL: 0.29 ± 0.26
  Log10 TCID50/mL: 6.63 ± 0.19 Log10 TCID50/mL
[10]
  LRF ± 95% CL: 0.36 ± 0.28
  Log10 TCID50/mL: 6.56 ± 0.22 Log10 TCID50/mL
0.15% Mega 10 alone, neutralized mAb2 protein A eluate, 0 minutes (Table 3)
  LRF ± 95% CL: 0.99 ± 0.30
0.15% Mega 10 alone, neutralized mAb2 protein A eluate, 2.5 minutes (Table 3)
  LRF ± 95% CL: 1.62 ± 0.30
0.15% Mega 10 alone, neutralized mAb2 protein A eluate, 5 minutes (Table 3)
  LRF ± 95% CL: 1.68±0.31
0.15% Mega 10 alone, neutralized mAb2 protein A eluate, 5 minutes (Table 3), listed as Mega 10
  LRF ± 95% CL: 1.68 ± 0.31
0.15% Mega 10 alone, neutralized mAb2 protein A eluate, 10 minutes (Table 3)
  LRF ± 95% CL: 1.94 ± 0.32
0.15% Mega 10 alone, neutralized mAb2 protein A eluate, 30 minutes (Table 3)
  LRF ± 95% CL: 1.94 ± 0.32
[11]
  LRF ± 95% CL: 2.91 ± 0.32
  Log10 TCID50/mL: 3.88 ± 0.25 Log10 TCID50/mL
0.2% Mega-10, neutralized mAb1 protein A eluate pH 7.01, incubation 2.5 minutes
  Log10 TCID50/mL: ≤1.21 Log10 TCID50/mL
[12]
  LRF ± 95% CL: ≥5.58 ± 0.19
  Log10 TCID50/mL: ≤1.21 Log10 TCID50/mL
[13]
  LRF ± 95% CL: ≥5.58 ± 0.19
  Log10 TCID50/mL: ≤1.21 Log10 TCID50/mL
[14]
  LRF ± 95% CL: ≥5.58 ± 0.19
  Log10 TCID50/mL: ≤1.21 Log10 TCID50/mL
0.2% Mega-10, neutralized mAb1 protein A eluate
  treatment time to inactivate X-MuLV to the level below the detection limit: 2.5 min
[15]
  LRF ± 95% CL: 4.73 ± 0.46
  Log10 TCID50/mL: 2.19 ± 0.43 Log10 TCID50/mL
[16]
  LRF ± 95% CL: 5.31±0.75
  Log10 TCID50/mL: 1.61 ± 0.73 Log10 TCID50/mL
[17]
  LRF ± 95% CL: 5.31 ± 0.75
  Log10 TCID50/mL: 1.61 ± 0.73 Log10 TCID50/mL
[18]
  LRF ± 95% CL: 5.50 ± 0.90
  Log10 TCID50/mL: 1.42 ± 0.88 Log10 TCID50/mL
0.2% Mega-10, neutralized mAb2 protein A eluate pH 7.01, incubation 30 minutes
  Log10 TCID50/mL: ≤1.11 ± 0.27 Log10 TCID50/mL
[19]
  LRF ± 95% CL: 3.79 ± 0.33
  Log10 TCID50/mL: 3.00 ± 0.27 Log10 TCID50/mL
0.3% Mega-10, neutralized mAb1 protein A eluate pH 7.01, incubation 2.5 minutes
  Log10 TCID50/mL: ≤1.21 Log10 TCID50/mL
[20]
  LRF ± 95% CL: ≥5.58 ± 0.19
  Log10 TCID50/mL: ≤1.21 Log10 TCID50/mL
[21]
  LRF ± 95% CL: ≥5.58 ± 0.19
  Log10 TCID50/mL: ≤1.21 Log10 TCID50/mL
[22]
  LRF ± 95% CL: ≥5.58 ± 0.19
  Log10 TCID50/mL: ≤1.21 Log10 TCID50/mL
0.3% Mega-10, neutralized mAb1 protein A eluate
  treatment time to inactivate X-MuLV to the level below the detection limit: 2.5 min
[23]
  LRF ± 95% CL: 4.73 ± 0.46
  Log10 TCID50/mL: 2.19 ± 0.43 Log10 TCID50/mL
0.3% Mega-10, neutralized mAb2 protein A eluate pH 7.01, incubation 2.5 minutes
  Log10 TCID50/mL: ≤1.11 Log10 TCID50/mL
[24]
  LRF ± 95% CL: ≥5.81 ± 0.18
  Log10 TCID50/mL: ≤1.11 Log10 TCID50/mL
[25]
  LRF ± 95% CL: ≥5.81 ± 0.18
  Log10 TCID50/mL: ≤1.11 Log10 TCID50/mL
[26]
  LRF ± 95% CL: ≥5.81 ± 0.18
  Log10 TCID50/mL: ≤1.11 Log10 TCID50/mL
0.3% Mega-10, neutralized mAb2 protein A eluate
  treatment time to inactivate X-MuLV to the level below detection: 2.5 min

Source: US12123028B2, “Viral inactivation methods for continuous manufacturing of antibodies” (Bayer HealthCare LLC, priority 2018, dated 2024)
